Here are results for one substance from patent US9572831B2, “Composition and method for sulfated non-anticoagulant low molecular weight heparins in cancer and tumor metastasis” (priority 2013, dated 2017).

Series [1] in a line: Bleeding time (tail transection). It counts as in vivo, mice. The following applies: dose not stated; vs control. As to the method:
Bleeding time in mice was tested during the period of receiving test compounds. Mice were anesthetized with isoflurane inhalation. By using a scalpel, 0.5 cm of the distal end of the tail was transected, and the remaining length of tail was immersed immediately into a 37° C. solution of saline. Bleeding time was measured from the time of tail transection until visible bleeding could no longer be detected. The experiment was repeated 3 times with different groups and concentrations.

Series [2] relates to pancreatic (Panc-1) tumor. Briefly: CAM tumor implant model, Panc-1. The settings on record: 10 ug/CAM. It counts as in vivo.
Series [3] concerns MCF7 DOX resistant cancer cells. Briefly: Orthotopic implant of MCF7 DOX resistant cells in nude mice. It counts as in vivo. The settings on record: 10 mg/Kg, SC daily for 15 days, vs control. How it is done:
Immune-deficient female NCr nude homozygous mice aged 5-6 weeks weighing 18-20 g were purchased from Harlan Laboratories (Indianapolis, Ind.). All animal studies were conducted in accordance with the institutional guidelines for humane animal treatment. Mice were maintained under specific pathogen-free conditions and housed under controlled conditions of temperature (20-24° C.), humidity (60-70%), and 12 h light/dark cycle with ad libitum access to water and food. Mice were allowed to acclimatize for 5 days prior to the start of study.
Orthotopic implant of 0.5 million of MCF7 DOX resistant cancer cells in nude mice result in progressive rapid tumor growth approaching 150 mm3 after 5 days of implant.

For another series, the system named is MPanc96-luc cells. The series is classed as in vivo, athymic nude mice. The settings on record: S-NACH 20 mg/kg, tinzaparin 5 mg/kg. As to the method:
MPanc96-luc cells were harvested as described above and were orthotopically implanted (2×10^5 cells in 50 μl PBS per mouse) in the pancreas of anesthetized athymic nude mice. Just before treatment initiation, animals (n=10 per group) were randomized by tumor mass detected by an in vivo imaging system (IVIS, described below). Heparin derivatives S-NACH at 20 mg/kg and tinzaparin at 5 mg/kg were administered subcutaneously daily. Gemcitabine at 100 mg/kg was injected intraperitoneally twice a week alone or in combination with either S-NACH or tinzaparin. All mice used for treatment response evaluations were euthanized after 28 days. See Table 2 for the protocol of the study. Imaging was performed once per week to monitor tumor growth. Mice bearing MPanc96-luc tumors were anaesthetized using isoflurane, injected subcutaneously with 50 μl D-luciferin (30 mg/ml), then imaged. Photographic and luminescence images were taken at constant exposure time. Xenogen IVIS® Living Image software version 3.2 was used to quantify non-saturated bioluminescence in regions of interest. Light emission between 5.5×10^6-7.0×10^10 photons was assumed to be indicative of viable luciferase-labeled tumor cells while emissions below this range were considered as background. Bioluminescence was quantified as photons/second for each region of interest. In vivo tumor kinetic growth and metastasis were monitored by signal intensity. Ex vivo imaging was performed to confirm the signal intensity in the tumors after the termination. All specimens were analyzed by histology for routine analysis. Specimens were fixed in 10% buffered formalin, processed routinely, and embedded in paraffin. Then, after fixation, the specimens were transferred into the embedding chambers to hold the specimens in position until the paraffin became solid to prevent further rotation. Four μm serial sections were cut, and then stained using haematoxylin and eosin. Sections were evaluated for various pathologic parameters using a light microscope (Leica, Buffalo Grove, Ill.).

The subject of another series is human umbilical vein. Briefly: In vitro human vessel perfusion model. It counts as cell-based. The settings on record: FIG. 3. An excerpt:
Based on published data obtained on the tumor/vessel adherence characteristics in this model [Mousa S A., Comparative pharmacodynamic assessment of the antiangiogenesis activity of heparin and low-molecular-weight heparin fractions: structure function relationship, Clin Appl Thromb Hemost, 2013, 19(1):48-54], umbilical vein was utilized for all studies. Following informed consent, fresh umbilical cord was obtained, using a sterile technique, from the placenta following normal delivery […] from patients at local hospitals. Approximately 20 cm of the cord is excised, rinsed and wiped free of blood using cold 0.9% saline and sterile gauze. Then cold saline was used to flush the vein clean of blood. Two sections of umbilical cord (approximately 3 cm each) are cut longitudinally to expose the vein surface and are pinned to the silastic base of the chamber using 27 G×1 inch needles. […]
The vein segments were perfused for 24 hours with cancer cells in platelet-rich plasma (PRP) under venous flow conditions (70 ml/min). […] Blood gases of the perfusate were measured 15 minutes after the start and just prior to the end of the perfusion period to confirm that physiological conditions were maintained. […] Statistical significance was determined by using a paired t-test. […]

Take tinzaparin: in series [1], the bleeding time result is given as “extended the bleeding significantly”. Further, in series [2], the “tumor growth or tumor angiogenesis” value is on record as “inhibited”. For the same substance, the tumor growth progression result in series [3] is listed as “halting tumor growth progression”. The “tumor necrosis (histology)” value with MPanc96-luc cells is “modest increase in necrotic area”. Further, the “pancreatic cancer cell adhesion” value in the series with human umbilical vein is reported as “comparable anti-adhesive potency”.
